Each structure is given as a SMILES string. “And” between values parts separate entries of the source, which are not always exact repeats. Identical values can stand only once. A value given as a limit tells only on which side of the number the result lay.

The values that follow come from patent US20140051762A1, “POLYCATIONIC COMPOUNDS AND USES THEREOF” (priority 2004, published 2014).

Data set [1] has as its system Factor Xa. As to the kind of experiment: anti-heparin assay, % Factor Xa inhibition at single concentration (chromogenic substrate S-2765). Format: biochemical. To be noted: Single concentration (10 ug/ml). The method, then: (§1) The following example illustrates the heparin antagonistic effects of polycationic compounds of the present invention. To determine the anti-heparin activity of the polycationic compounds an assay measuring the percent inhibition using a fixed concentration of polycationic compound or concentrations of polycationic compounds causing lysis of 50% of human red blood cells were conducted.
(§2) 10 IU of anti-thrombin was dissolved in 10 ml of buffer, resulting in a 1 IU/ml stock solution (250×) of the anti-thrombin. The 1 IU/ml (250×) stock solution of anti-thrombin and a 336 mM stock solution of NaCl were diluted into a total volume of 50 μl buffer so that the final anti-thrombin concentration was 0.004 IU/sample well and the NaCl was 150 mM/sample well. 1 μl of the compound to be tested, final concentration 10 μg/ml (corresponding to 0.5 logarithmic antagonist dilution) is added to the sample well. The samples are mixed and allowed to incubate at room temperature for 20 minutes. 50 μl of factor Xa dissolved in buffer is added to the sample well to a final concentration of 0.14 knat/well (2 μl of the 7.1 kna/1 ml stock solution to a final sample well buffer volume of 100 μl). The samples were mixed and further incubated at room temperature for 10 minutes. 10 μl of a 4 mM stock solution of the substrate S-2765 was added to each sample well for a final concentration of 0.4 mM in each sample well. The samples were mixed and hydrolyses of the chromogenic substrate Z-D-Arg-Gly-Arg-pNA (S-2765), thus liberating the chromophoric group pNA (p-nitroaniline), was monitored at 405 nm. The samples were mixed every 30 seconds to maintain a uniform mixture. ThermoLabsystems Multiskan Spectrum spectrophotometer was used to measure the absorbance spectrums. The increase in absorbance was proportional to the enzyme (factor Xa) activity. The % inhibition of factor Xa was determined using a standard curve.

The subject of data set [2] is Factor Xa. The data set is described as follows: Factor Xa inhibition EC50 (fixed heparin concentrations, different amounts of heparin antagonist). To be noted: read-out: FactorXa Inhibition: EC50. It is filed as biochemical. The protocol: as §1, §2
(§3) Factor Xa Inhibition: EC50. To determine the concentration of polycationic compound that causes about 50% […], fixed heparin concentrations were used and different amounts of heparin antagonists were added.

Another data set has as its system human red blood cells. The data set is described as follows: lysis of 50% of human red blood cells (HC50). It is filed as cell-based. The protocol: as §1, §3
The subject of data set [3] is FGF2-induced angiogenesis in the CAM model. As to the kind of experiment: FGF2-induced angiogenesis in the chick chorioallantoic membrane (CAM) model. It is filed as in vivo, chick embryo. To be noted: for % inhibition ± SEM / Branch pts ± SEM: Table 3; for Mean % inhibition ± SEM: Table 4, n = 8. The method, then: The following example illustrates the anti-angiogenic effect of exemplary polycationic compounds of the present invention. Ten-day old embryos were purchased from Spafas, Inc. (Preston, Conn.) and were incubated at 37° C. with 55% relative humidity. In the dark with the help of a candling lamp, a small hole was punctured in the shell concealing the air sac with a hypodermic needle. A second hole was punctured in the shell on the broadside of the egg directly over an avascular portion of the embryonic membrane, as observed during candling. A false air sac was created beneath the second hole by the application of negative pressure to the first hole, which caused the chorioallantoic membrane (CAM) to separate from the shell. A window, approximately 1.0 cm^2, was cut in the shell over the dropped CAM with the use of a small crafts grinding wheel (Dremel, Division of Emerson Electric Company Racine, Wis.) which allowed direct access to the underlying CAM. Filter disks of #1 filter paper (Whatman International, United Kingdom) were soaked in 3 mg/mL cortisone acetate (Sigma, St. Louis, Mo.) in a solution of 95% ethanol and water and subsequently air dried under sterile conditions. FGF2 (Life Technologies, Gaithersburg, Md.) was used to grow vessels on the CAMs of 10 day old chick embryos. Sterile filter disks adsorbed with FGF2 dissolved in PBS at 1μg/mL were placed on growing CAMs. […] At 24 h, test compounds or control vehicle was added directly to CAM topically.
CAM tissue directly beneath FGF2-saturated filter disk was resected from embryos treated 48 hours prior with test compound or control. Tissues were washed three times with PBS. Sections were placed in a 35-mm petri dish (Nalgen Nunc, Rochester, N.Y.) and examined under a SV6 stereomicroscope (Karl Zeiss, Thornwood, N.Y.) at 50× magnification. Digital images of CAM sections adjacent to filters were collected using a 3-CCD color video camera system (Toshiba America, New York, N.Y.) and analyzed using Image-Pro Plus software (Media Cybernetics, Silver Spring, Md.). Table 4 contains the number of vessel branch points contained in a circular region equal to the area of a filter disk counted for each section.
CAM tissue directly beneath FGF2-saturated filter disk was resected from embryos treated 48 h prior with compound or control. Tissues were washed three times with PBS. Sections were placed in a 35-mm petri dish (Nalge Nunc, Rochester, N.Y.) and examined under a SV6 stereomicroscope (Karl Zeiss, Thornwood, N.Y.) at 50× magnification. Digital images of CAM sections adjacent to filters were collected using a 3-CCD color video camera system (Toshiba America, New York, N.Y.) and analyzed with the Image-Pro Plus software (Media Cybernetics, Silver Spring, Md.).

Another data set concerns heparin. As to the kind of experiment: effect on coagulation time and heparin efficacy. The protocol: The following example illustrates the effect of a polycationic compound of the present invention on coagulation time. The anti-heparin assay as described herein was used. The assay contained either 1 mg/L, 2 mg/L or 4 mg/I of heparin and increasing amounts of Compound 26 was added.

Setting [4] is: Heparin 1 mg/L, Compound 26 1.25 mg/L.
Setting [5] is: Heparin 1 mg/L, Compound 26 2 mg/L.
[6] abbreviates: Heparin 1 mg/L, Compound 26 2.5 mg/L.
[7] abbreviates: Heparin 1 mg/L, Compound 26 4 mg/L.
Setting [8] is: Heparin 2 mg/L, Compound 26 2.5 mg/L.
The mark [9] stands for this setting: Heparin 2 mg/L, Compound 26 4 mg/L.
Where [10] appears, read: Heparin 2 mg/L, Compound 26 5 mg/L.
Where [11] appears, read: Heparin 2 mg/L, Compound 26 6 mg/L.
The mark [12] stands for this setting: Heparin 2 mg/L, Compound 26 10 mg/L.
Setting [13] is: Heparin 4 mg/L, Compound 26 2.5 mg/L.
Where [14] appears, read: Heparin 4 mg/L, Compound 26 4 mg/L.
[15] abbreviates: Heparin 4 mg/L, Compound 26 5 mg/L.
The mark [16] stands for this setting: Heparin 4 mg/L, Compound 26 6 mg/L.
The mark [17] stands for this setting: Heparin cell empty (4 mg/L from line above), Compound 26 10 mg/L.

As usually defined, the EC50 is the concentration at which the effect is half-maximal. By HC50 is commonly meant the concentration that lyses half of the red blood cells. On to `CC(C)(C)c1cc(NC(=O)c2cccc(C(=O)Nc3cc(C(C)(C)C)cc(NC(=O)[C@H](N)CCCNC(=N)N)c3SCCN)c2)c(SCCN)c(NC(=O)[C@H](N)CCCNC(=N)N)c1` [Compound 7], for which the “% FactorXa Inhibition” value in the data set with Factor Xa [1] is on record as 5.506%. Moreover, in the data set on Factor Xa [2], the EC50 amounted to 3.7 µM. In addition, the HC50 in the data set on human red blood cells is 715 μg/ml and 519 μM.
As to `N=C(N)NCCOc1cc(OCCNC(=N)N)c(C(=O)Nc2cccc(N)c2SCCNC(=N)N)cc1C(=O)Nc1cccc(N)c1SCCNC(=N)N` [Compound 27], in data set [3] (0.1 ug + FGF2 (1 ug)), the “% inhibition ± SEM” value is given as 34 ± 9% and the “Branch pts ± SEM” value is listed as 144 ± 9. In addition, the “% FactorXa Inhibition” value in the data set on Factor Xa [1] worked out at 8.886%. In the data set with Factor Xa [2], the EC50 came out at 9.7 µM. Also, in the data set with human red blood cells, the HC50 is recorded as >2,000 μg/ml.
Turning to `COc1ccc(NC(=O)C(CCCNC(=N)N)NC(=O)c2cc(NC(=O)C(CCCNC(=N)N)NC(=O)c3cc(NC(=O)C(CCCNC(=N)N)NC(=O)c4cc(NC(=O)C(N)CCCNC(=N)N)ccc4OC)ccc3OC)ccc2OC)cc1C(N)=O` (centres unmarked) [Compound 48], the results for the “Mean % inhibition ± SEM” value in data set [3] (1.0 ug + FGF2 (1 ug)), in data set [3] (3.0 ug + FGF2 (1 ug)) and in data set [3] (10 ug + FGF2 (1 ug)) were 16 ± 6%, 38 ± 8% and 55 ± 7%, respectively. Moreover, the 50% haemolytic concentration (HC50) in the data set with human red blood cells is 261 μg/ml and 144 μM.
In the case of `N=C(N)NCCC[C@@H](N)C(=O)Nc1cccc(NC(=O)c2cc(C(=O)Nc3cccc(NC(=O)[C@H](N)CCCNC(=N)N)c3SCCN)c(OCCN)cc2OCCN)c1SCCN` [Compound 26], in data set [3] (1.0 ug + FGF2 (1 ug)), the “% inhibition ± SEM” value was determined as 55 ± 8%. In data set [3] (1.0 ug + FGF2 (1 ug)), the “Branch pts ± SEM” value amounted to 123 ± 7. In addition, the “% FactorXa Inhibition” value in the data set on Factor Xa [1] stood at 48.14%. Also, the EC50 in the data set on Factor Xa [2] was 2 µM. Moreover, the HC50 in the data set with human red blood cells is >2,000 μg/ml. Besides, the “Coagulation Time” value amounted to 42.8 s with heparin (setting [4]); 33.4 s in the data set on heparin (setting [5]); 31.3 s in the data set on heparin (setting [6]); 27.9 s in the data set on heparin (setting [7]); 40.2 s with heparin (setting [8]); 33.9 s in the data set with heparin (setting [9]). The “Coagulation Time” value in the data set with heparin (setting [10]) came to 31.9 s; in the data set on heparin (setting [11]), 31.8 s; in the data set with heparin (setting [12]), 34.4 s; with heparin (setting [13]), 124.8 s; in the data set on heparin (setting [14]), 87.4 s; in the data set with heparin (setting [15]) it was 55.8 s. For the same molecule, the “Coagulation Time” value in the data set with heparin (setting [16]) stood at 35.4 s; in the data set on heparin (setting [17]), 29.9 s. The “Heparin Efficacy” value in the data set on heparin (setting [4]) is listed as 0.6506; in the data set on heparin (setting [5]) it was 0.2402; in the data set on heparin (setting [6]), 0.1485; with heparin (setting [7]) it was −1.67E−08; with heparin (setting [8]) it was 0.1108; in the data set on heparin (setting [9]), 0.03149. For the same molecule, the “Heparin Efficacy” value came out at 0.006297 in the data set with heparin (setting [10]); 0.005038 in the data set with heparin (setting [11]); 0.03778 with heparin (setting [12]); 0.513 in the data set on heparin (setting [13]); 0.3108 with heparin (setting [14]); 0.14 in the data set with heparin (setting [15]). In addition, the “Heparin Efficacy” value in the data set with heparin (setting [16]) is reported as 0.02973; in the data set with heparin (setting [17]) it was −2.06E−09. In the data set on heparin (varying concentrations of heparin), the “effect on coagulation time (in words)” value is recorded as “decreased the coagulation time”.
For `COc1ccc(NC(=O)C(CCCCN)NC(=O)c2cc(NC(=O)C(CCCCN)NC(=O)c3cc(NC(=O)C(CCCCN)NC(=O)c4cc(NC(=O)C(N)CCCCN)ccc4OC)ccc3OC)ccc2OC)cc1C(N)=O` (centres unmarked) [Compound 50], the “Mean % inhibition ± SEM” value is reported as 21 ± 9% in data set [3] (1.0 ug + FGF2 (1 ug)), 42 ± 8% in data set [3] (3.0 ug + FGF2 (1 ug)) and 66 ± 7% in data set [3] (10 ug + FGF2 (1 ug)). The HC50 with human red blood cells was 637 μg/ml and 377 μM.
Take `NCCOc1cc(OCCN)c(C(=O)Nc2cccc(N)c2SCCN)cc1C(=O)Nc1cccc(N)c1SCCN` [Compound 25]: the “% FactorXa Inhibition” value in the data set with Factor Xa [1] is on record as 0%. The EC50 in the data set with Factor Xa [2] came to 5.3 µM. Further, the HC50 in the data set with human red blood cells is on record as >2,000 μg/ml.
